Data taken from patent US20260062422A1 (Halda Therapeutics OpCo, Inc., priority 2022, published 2026).

Tests used:
[1] = system: T-Rex 293 cell line SC3 cells lacking increased expression of androgen receptor protein; assay: Cellular growth inhibition, T-Rex 293 SC3 cells without doxycycline, CellTiter-Glo; assay type: cell-based; conditions: T-Rex 293 SC3 cells not exposed to doxycycline, CellTiter-Glo 2.0
Procedure, shortened: (§1)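 Cells of clone SC3 are seeded in charcoal-dextran-stripped serum medium with or without 10 ng/mL doxycycline to induce wild-type androgen receptor. After 24 h, serial compound dilutions are added at 0.5% DMSO and incubated 72 h at 37 °C. CellTiter-Glo 2.0 measures viability, giving GI50 values.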

T47D cells = assay: Cellular growth inhibition assay for T47D cells, CellTiter-Glo; assay type: cell-based, human; conditions: 72 hours treatment, CellTiter-Glo 2.0 cell viability
Procedure, shortened: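 Growth inhibition as GI50, fitted with four parameters to CellTiter-Glo luminescence after 72 h of compound exposure (0.5% DMSO). Cells were T47D, grown in insulin-supplemented (0.2 units/mL) DMEM with 10% FBS and treated one day post-seeding.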

[2] = system: T-Rex 293 cell line SC3 cells having increased expression of androgen receptor protein due to exposure to doxycycline; assay: Cellular growth inhibition, T-Rex 293 SC3 cells with doxycycline (androgen receptor induced), CellTiter-Glo; assay type: cell-based; conditions: T-Rex 293 SC3 cells with 10 ng/mL doxycycline (increased androgen receptor expression)
Procedure, shortened: as §1

VCaP cells = assay: Cellular growth inhibition assay for VCaP cells, CellTiter-Glo; assay type: cell-based, human; conditions: 72 hours treatment, CellTiter-Glo 2.0
Procedure, shortened: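 GI50 values come from four-parameter curve fits of luminescence data normalized to a zero baseline. Compound, in medium with 0.5% DMSO, was added one day after plating and left for 72 h before CellTiter-Glo 2.0 addition.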

SMILES	GI50 ([1]; 72 h)	GI50 (T47D cells; Homo sapiens, T47D, 72 h)	GI50 ([2]; 72 h)	GI50 (VCaP cells; Homo sapiens, VCaP, 72 h)	GI50 ([1]; 72 hours)	GI50 ([2]; 72 hours)	GI50 (VCaP cells)	GI50 (T47D cells)
Cc1sc2c(c1C)C(c1ccc(CCCOC3CCN(c4ncc(C(=O)N[C@H]5C(C)(C)[C@H](Oc6ccc(C#N)c(Cl)c6)C5(C)C)cn4)CC3)cc1)=C[C@H](Cc1cccnc1)c1nnc(C)n1-2 [Compound I-246]	> 3000 nM	< 500 nM	< 500 nM	< 500 nM	–	–	–	–
CC[C@@H]1N=C(c2ccc(CC3CC4(CCN(c5cnc(C(=O)N[C@H]6C(C)(C)[C@H](Oc7ccc(C#N)c(Cl)c7)C6(C)C)cn5)CC4)C3)cc2)c2c(sc(C)c2C)-n2c(C)nnc21 [Compound I-597]	> 3000 nM	< 500 nM	> 3000 nM	< 500 nM	–	–	–	–
Cc1sc2c(c1C)C(c1ccc(-c3scnc3OC3CCN(c4ncc(C(=O)N[C@H]5C(C)(C)[C@H](Oc6ccc(C#N)c(Cl)c6)C5(C)C)cn4)CC3)cc1)=N[C@@H](Cc1ncco1)c1nnc(C)n1-2 [Compound I-390]	> 3000 nM	> 3000 nM	< 500 nM	< 500 nM	–	–	–	–
Cc1sc2c(c1C)C(c1ccc(OC3CN(CC4CCN(c5ncc(C(=O)N[C@H]6C(C)(C)[C@H](Oc7ccc(C#N)c(Cl)c7)C6(C)C)cn5)CC4)C3)cc1)=N[C@@H](Cc1ncco1)c1nnc(C)n1-2 [Compound I-168]	> 3000 nM	500 to 1500 nM	< 500 nM	> 3000 nM	–	–	–	–
Cc1sc2c(c1C)C(c1ccc(O[C@@H]3COC4(CCN(c5ncc(C(=O)N[C@H]6C(C)(C)[C@H](Oc7ccc(C#N)c(Cl)c7)C6(C)C)cn5)C4)C3)cc1)=N[C@@H](Cc1ncco1)c1nnc(C)n1-2 (stereo partly shown) [Compound I-185]	< 500 nM	< 500 nM	< 500 nM	< 500 nM	–	–	–	–
Cc1sc2c(c1C)C(c1ccc(C3CC(C4CCN(c5cnc(C(=O)N[C@H]6C(C)(C)[C@H](Oc7ccc(C#N)c(Cl)c7)C6(C)C)cn5)CC4)C3)cc1)=NC(C)c1nnc(C)n1-2 (stereo partly shown) [Compound I-469]	–	< 500 nM	–	–	500 to 1500 nM	< 500 nM	< 500 nM	–
Cc1sc2c(c1C)C(c1ccc(OC3CC4(C3)CC3(CCN(c5ccc(C(=O)N[C@H]6C(C)(C)[C@H](Oc7ccc(C#N)c(Cl)c7)C6(C)C)cn5)CC3)C4)cc1)=N[C@@H](C)c1nnc(C)n1-2 [Compound I-550]	> 3000 nM	< 500 nM	< 500 nM	< 500 nM	–	–	–	–
Cc1nc(N2CCC3(CC2)CC2(CC(Oc4ccc(C5=N[C@@H](Cc6ncco6)c6nnc(C)n6-c6sc(C)c(C)c65)cc4)C2)C3)ncc1C(=O)N[C@H]1C(C)(C)[C@H](Oc2ccc(C#N)c(Cl)c2)C1(C)C [Compound I-673, N-[3-(3-chloro-4-cyano-phenoxy)-2,2,4,4-tetramethyl-cyclobutyl]-4-methyl-2-[2-[4-[(9S)-4,5,13-trimethyl-9-(oxazol-2-ylmethyl)-3-thia-1,8,11,12-tetrazatricyclo[8.3.0.02,6]trideca-2(6),4,7,10,12-pentaen-7-yl]phenoxy]-9-azadispiro [3.1.56.14]dodecan-9-yl]pyrimidine-5-carboxamide]	> 3000 nM	< 500 nM	< 500 nM	< 500 nM	–	–	–	–
Cc1sc2c(c1C)C(c1ccc(C3CCC4(CC3)CCN(c3ncc(C(=O)N[C@H]5C(C)(C)[C@H](Oc6ccc(C#N)c(Cl)c6)C5(C)C)cn3)C4)cc1)=N[C@@H](Cc1ncco1)c1nnc(C)n1-2 [Compound I-671, N-[3-(3-chloro-4-cyano-phenoxy)-2,2,4,4-tetramethyl-cyclobutyl]-2-[8-[4-[(9S)-4,5,13-trimethyl-9-(oxazol-2-ylmethyl)-3-thia-1,8,11,12-tetrazatricyclo[8.3.0.02,6]trideca-2(6),4,7,10,12-pentaen-7-yl]phenyl]-2-azaspiro[4.5]decan-2-yl]pyrimidine-5-carboxamide]	< 500 nM	< 500 nM	< 500 nM	< 500 nM	–	–	–	–
Cc1sc2c(c1C)C(c1ccc(-c3ccc(OC4CCN(c5ncc(C(=O)N[C@H]6C(C)(C)[C@H](Oc7ccc(C#N)c(Cl)c7)C6(C)C)cn5)CC4)s3)cc1)=N[C@@H](Cc1ncco1)c1nnc(C)n1-2 [Compound I-409]	> 3000 nM	< 500 nM	< 500 nM	> 3000 nM	–	–	–	–
Cc1sc2c(c1C)C(c1ccc(N3CCC[C@H](C(=O)NCc4ncc(C(=O)N[C@H]5C(C)(C)[C@H](Oc6ccc(C#N)c(Cl)c6)C5(C)C)cn4)C3)cc1)=N[C@@H](Cc1ncco1)c1nnc(C)n1-2 [Compound I-331]	–	–	–	–	500 to 1500 nM	< 500 nM	< 500 nM	500 to 1500 nM
Cc1sc2c(c1C)C(c1ccc(CN3CCN(C(=O)c4ncc(C(=O)N[C@H]5C(C)(C)[C@H](Oc6ccc(C#N)c(Cl)c6)C5(C)C)cn4)CC3)cc1)=N[C@@H](Cc1ncco1)c1nnc(C)n1-2 [Compound I-290]	500 to 1500 nM	1500 to 3000 nM	< 500 nM	< 500 nM	–	–	–	–
Cc1sc2c(c1C)C(c1ccc(O[C@H]3CC[C@@]4(CCN(c5ncc(C(=O)N[C@H]6C(C)(C)[C@H](Oc7ccc(C#N)c(Cl)c7)C6(C)C)cn5)C4)C3)cc1)=N[C@@H](Cc1ncco1)c1nnc(C)n1-2 [Compound I-176]	500 to 1500 nM	< 500 nM	< 500 nM	< 500 nM	–	–	–	–
CCNC(=O)C[C@@H]1N=C(c2ccc(N3CCC(OC4CCN(c5ncc(C(=O)N[C@H]6C(C)(C)[C@H](Oc7ccc(C#N)c(Cl)c7)C6(C)C)cn5)CC4)C3)cc2)c2c(sc(C)c2C)-n2c(C)nnc21 (stereo partly shown) [Compound I-126]	500 to 1500 nM	< 500 nM	< 500 nM	500 to 1500 nM	–	–	–	–
Cc1sc2c(c1C)C(c1ccc(N3CCC4(CC3)CC(Cc3ncc(C(=O)N[C@H]5C(C)(C)[C@H](Oc6ccc(C#N)c(Cl)c6)C5(C)C)cn3)C4)cc1)=NC(Cc1ncco1)c1nnc(C)n1-2 (stereo partly shown) [Compound I-459]	–	–	< 500 nM	–	> 3000 nM	–	> 3000 nM	1500 to 3000 nM
Cc1sc2c(c1C)C(c1ccc(NC[C@@H]3CN(c4ncc(C(=O)N[C@H]5C(C)(C)[C@H](Oc6ccc(C#N)c(Cl)c6)C5(C)C)cn4)CCO3)cc1)=N[C@@H](Cc1ncco1)c1nnc(C)n1-2 [Compound I-646]	< 500 nM	< 500 nM	< 500 nM	< 500 nM	–	–	–	–
Cc1sc2c(c1C)C(c1ccc(CC(C)(C)N3CC4(CCCN(c5ncc(C(=O)N[C@H]6C(C)(C)[C@H](Oc7ccc(C#N)c(Cl)c7)C6(C)C)cn5)C4)C3)cc1)=N[C@@H](Cc1ncco1)c1nnc(C)n1-2 [Compound I-429]	1500 to 3000 nM	< 500 nM	< 500 nM	< 500 nM	–	–	–	–
Cc1sc2c(c1C)C(c1ccc(O[C@H]3CC[C@]4(CCN(c5ncc(C(=O)N[C@H]6C(C)(C)[C@H](Oc7ccc(C#N)c(Cl)c7)C6(C)C)cn5)C4)C3)cc1)=N[C@@H](Cc1ncco1)c1nnc(C)n1-2 [Compound I-175]	< 500 nM	500 to 1500 nM	< 500 nM	< 500 nM	–	–	–	–
Cc1sc2c(c1C)C(c1ccc([C@@H]3CCN(C(=O)[C@@H]4CCCN(c5ncc(C(=O)N[C@H]6C(C)(C)[C@H](Oc7ccc(C#N)c(Cl)c7)C6(C)C)cn5)C4)C3)cc1)=N[C@@H](Cc1ncco1)c1nnc(C)n1-2 [Compound I-383]	> 3000 nM	> 3000 nM	> 3000 nM	> 3000 nM	–	–	–	–
Cc1sc2c(c1C)C(c1ccc(C#C[C@H]3C[C@]4(CCCN(c5ncc(C(=O)N[C@H]6C(C)(C)[C@H](Oc7ccc(C#N)c(Cl)c7)C6(C)C)cn5)C4)C3)cc1)=N[C@@H](Cc1ncco1)c1nnc(C)n1-2 [Compound I-269]	> 3000 nM	500 to 1500 nM	< 500 nM	1500 to 3000 nM	–	–	–	–
Cc1sc2c(c1C)C(c1ccc(CCC(=O)N3CC4(C3)CN(c3ncc(C(=O)N[C@H]5C(C)(C)[C@H](Oc6ccc(C#N)c(Cl)c6)C5(C)C)cn3)C4)cc1)=N[C@@H](C)c1nnc(C)n1-2 [Compound I-603]	> 3000 nM	500 to 1500 nM	< 500 nM	500 to 1500 nM	–	–	–	–
CCNC(=O)C[C@@H]1N=C(c2ccc(N3CC(OC4CCN(c5ncc(C(=O)N[C@H]6C(C)(C)[C@H](Oc7ccc(C#N)c(Cl)c7)C6(C)C)cn5)CC4)C3)cc2)c2c(sc(C)c2C)-n2c(C)nnc21 [Compound I-117]	500 to 1500 nM	< 500 nM	< 500 nM	< 500 nM	–	–	–	–
CCNC(=O)C[C@@H]1N=C(c2ccc(CN3CC4CN(c5ncc(C(=O)N[C@H]6C(C)(C)[C@H](Cc7ccc(C#N)c(Cl)c7)C6(C)C)cn5)CC4C3)cc2)c2c(sc(C)c2C)-n2c(C)nnc21 (stereo partly shown) [Compound I-94]	500 to 1500 nM	500 to 1500 nM	< 500 nM	< 500 nM	–	–	–	–
Cc1sc2c(c1C)C(c1ccc(-n3ccc(C4CCN(c5ncc(C(=O)N[C@H]6C(C)(C)[C@H](Oc7ccc(C#N)c(Cl)c7)C6(C)C)cn5)CC4)n3)cc1)=N[C@@H](Cc1ncco1)c1nnc(C)n1-2 [Compound I-441]	500 to 1500 nM	< 500 nM	< 500 nM	< 500 nM	–	–	–	–
Cc1sc2c(c1C)C(c1ccc(N3CCN(C4CCN(c5ncc(C(=O)N[C@H]6C(C)(C)[C@H](Oc7ccc(C#N)c(Cl)c7)C6(C)C)cn5)CC4)CC3)cc1)=NC(Cc1ncco1)c1nnc(C)n1-2 (stereo partly shown) [Compound I-651]	< 500 nM	< 500 nM	< 500 nM	< 500 nM	–	–	–	–
